# Test results: US4605739A, “Benzoyl indolecarboxylates” (Kowa Co., Ltd., priority 1983, dated 1986)
# Biological target: chymotrypsin (Bos taurus, UniProt P00766)
# Test: chymotrypsin inhibitory effect (procedure of Muramatsu et al; acetyl-L-tyrosine ethyl ester substrate, Hestrin method)
# Assay type: biochemical
# Details: 10 min preincubation, pH 8.0 Tris-HCl, 37° C., 30 min, absorbance 530 nm, read-out: Inhibitory Activity, 50% Inhibitory Concentration
# Procedure: Some selected compounds of this invention were tested with respect to their chymotrypsin inhibitory effects.
# The tests were conducted in accordance with the procedure of Muramatsu et al [The Journal of Biochemistry, 62, 408 (1967)]. A mixture was prepared which was made up of 0.1 ml of a dimethylsulfoxide solution of each test compound, 0.1 ml of water and 0.1 ml of a buffer solution containing 10 μg/ml of chymotrypsin (0.1M Tris-HCl buffer, pH 8.0). The mixture was incubated for 10 minutes, followed by addition of 0.2 ml of a buffer solution containing 25 mM of an ethyl ester of acetyl-L-tyrosine. The resulting mixture was reacted at 37° C. for 30 minutes. The remaining substrate was caused to develop a color by the Hestrin method, whereupon its absorbance was measured at 530 nm. For comparative purposes, use was made of tosylphenylalanine chloromethyl ketone (TPCK) which is known as a good inhibitor for chymotrypsin.
row,IC50,SMILES
1,500 nM,Cc1ccc2[nH]c(C)c(CC(=O)Oc3ccc(C(=O)N4CCN(C(C)C)CC4)cc3)c2c1 [Example 4]
2,80 nM,COc1ccc2[nH]cc(CC(=O)Oc3ccc(C(=O)N4CCN(C(C)C)CC4)cc3)c2c1 [Example 7]
3,300 nM,COc1ccc2c(c1)c(CC(=O)Oc1ccc(C(=O)N3CCN(C(C)C)CC3)cc1)c(C)n2C [Example 2]
4,500000 nM,"Cc1ccc(S(=O)(=O)NC(Cc2ccccc2)C(=O)CCl)cc1 (centres unmarked) [TPCK, tosylphenylalanine chloromethyl ketone, reference compound]"
5,700 nM,Cc1[nH]c2ccccc2c1CC(=O)Oc1ccc(C(=O)N2CCN(C(C)C)CC2)cc1 [Example 10]
6,400 nM,COc1ccc2[nH]c(C)c(CC(=O)Oc3ccc(C(=O)N4CCN(C(C)C)CC4)cc3)c2c1 [Example 3]
7,6000 nM,CC(C)N1CCN(C(=O)c2ccc(OC(=O)Cc3c[nH]c4ccccc34)cc2)CC1 [Example 14]
8,600 nM,CCCCc1ccc2[nH]c(C)c(CC(=O)Oc3ccc(C(=O)N4CCN(C(C)C)CC4)cc3)c2c1 [Example 5]
